Source: patent US7534809B2, “Phospho-indoles as HIV inhibitors” (priority 2004, dated 2009)
Like-named read-outs stand apart in the source and are kept apart here.

How the values were obtained:
[1] = system: HIV mutant strain K103N/Y181C; assay: Cell-based assay using BH-10 cells, K103N/Y181C mutant
Description: (§1) In a typical embodiment, the NNRTIs display an EC50 in a mutant HIV strain of less than approximately 5, 2.5, 1 or 0.1 μM concentration. The degree of cross-resistance against a drug resistant strain of HIV is measured by assessing the EC50 of the desired oxo-pyrimidine compound in the target mutated, i.e., drug resistant, virus.
(§2) The degree of cross-resistance against a drug resistant strain of HIV can easily be measured by assessing the EC50 of the desired indole in the target mutated i.e., drug resistant, virus.

HIV mutant strain Y181C = assay: Cell-based assay using BH-10 cells, Y181C mutant
Description: as §1, §2

HIV BH-10 WT = assay: Cell-based assay using BH-10 cells, wild type
[2] = Human immunodeficiency virus 1, read-out: EC50 K103N/Y181C, BH-10 cells, K103N/Y181C mutant
[3] = Human immunodeficiency virus 1, read-out: EC50 Y181C, BH-10 cells, Y181C mutant
[4] = Human immunodeficiency virus 1, read-out: EC50 WT///B, BH-10 cells, wild type
[5] = BH-10 cells, K103N/Y181C mutant, read-out: EC50 K103N/Y181C
[6] = BH-10 cells, Y181C mutant, read-out: EC50 Y181C
[7] = BH-10 cells, wild type, read-out: EC50 WT///B
[8] = read-out: EC50 K103N/Y181C, BH-10 cells, K103N/Y181C mutant

Compound COP(=O)(c1ccc(C)c(C)c1)c1c(C(N)=O)[nH]c2ccc(Cl)cc12 (centres unmarked) [Compound 7ae] has an EC50 [1, 2] of 1.1 nM, an EC50 (HIV mutant strain Y181C; [3]) of 11.1 nM and an EC50 (HIV BH-10 WT; [4]) of 0.5 nM.

For COP(=O)(c1cc(F)cc(F)c1)c1c(C(N)=O)[nH]c2ccc(Cl)cc12 (centres unmarked) [Compound 7aj], the EC50 [1, 2] was 9.1 nM, the EC50 (HIV mutant strain Y181C; [3]) was 17.7 nM and the EC50 (HIV BH-10 WT; [4]) was 0.6 nM.

In the case of COP(=O)(c1ccc(F)cc1)c1c(C(N)=O)[nH]c2ccc(Cl)cc12 (centres unmarked) [Compound 7ak], the EC50 [1, 2] is reported as 468 nM, the EC50 (HIV mutant strain Y181C; [3]) is reported as 34.5 nM and the EC50 (HIV BH-10 WT; [4]) is reported as 5.5 nM.

COP(=O)(c1ccccc1F)c1c(C(N)=O)[nH]c2ccc(Cl)cc12 (centres unmarked) [Compound 7al] was tested, and the EC50 [1, 5] was 2.6 nM, the EC50 (HIV mutant strain Y181C; [6]) was 13.9 nM and the EC50 (HIV BH-10 WT; [7]) was 0.5 nM.

Work on CCc1ccccc1P(=O)(OC)c1c(C(N)=O)[nH]c2ccc(Cl)cc12 (centres unmarked) [Compound 7an] yielded an EC50 [1, 2] of 1.3 nM, an EC50 (HIV mutant strain Y181C; [3]) of 50.5 nM and an EC50 (HIV BH-10 WT; [4]) of 2.9 nM.

For COP(=O)(c1ccccc1Cl)c1c(C(N)=O)[nH]c2ccc(Cl)cc12 (centres unmarked) [Compound 7ao], the EC50 [1, 2] was 1.4 nM, the EC50 (HIV mutant strain Y181C; [3]) was 2 nM and the EC50 (HIV BH-10 WT; [4]) was 0.4 nM.

Compound COP(=O)(c1cccc(COCc2ccccc2)c1)c1c(C(N)=O)[nH]c2ccc(Cl)cc12 (centres unmarked) [Compound 7ap] has an EC50 [1, 2] of over 1250 nM, an EC50 (HIV mutant strain Y181C; [3]) of 1140 nM and an EC50 (HIV BH-10 WT; [4]) of 153 nM.

COP(=O)(c1cccc(CO)c1)c1c(C(N)=O)[nH]c2ccc(Cl)cc12 (centres unmarked) [Compound 7aq] showed an EC50 [1, 2] of 126 nM, an EC50 (HIV mutant strain Y181C; [3]) of 83.1 nM and an EC50 (HIV BH-10 WT; [4]) of 2.5 nM.

COP(=O)(c1cccc(C(C)(C)C)c1)c1c(C(N)=O)[nH]c2ccc(Cl)cc12 (centres unmarked) [Compound 7ar] showed an EC50 [1, 2] of 30.6 nM, an EC50 (HIV mutant strain Y181C; [3]) of 19.3 nM and an EC50 (HIV BH-10 WT; [4]) of 2.9 nM.

COP(=O)(c1cc(C)cc(C#N)c1)c1c(C(N)=O)[nH]c2ccc(Cl)cc12 (centres unmarked) [Compound 7as] was tested, and the EC50 [1, 2] was 2.9 nM, the EC50 (HIV mutant strain Y181C; [3]) was 4.8 nM and the EC50 (HIV BH-10 WT; [4]) was 1.4 nM.

Work on COP(=O)(c1cc(F)cc(C#N)c1)c1c(C(N)=O)[nH]c2ccc(Cl)cc12 (centres unmarked) [Compound 7at] yielded an EC50 [1, 5] of 10.3 nM, an EC50 (HIV mutant strain Y181C; [6]) of 22.1 nM and an EC50 (HIV BH-10 WT; [7]) of 5.7 nM.

COP(=O)(c1cc(Cl)cc(Cl)c1)c1c(C(N)=O)[nH]c2ccc(Cl)cc12 (centres unmarked) [Compound 7b] showed an EC50 [1, 2] of 16.8 nM, an EC50 (HIV mutant strain Y181C; [3]) of 5.3 nM and an EC50 (HIV BH-10 WT; [4]) of 1.2 nM.

For COP(=O)(c1cccc(Cl)c1)c1c(C(N)=O)[nH]c2ccc(Cl)cc12 (centres unmarked) [Compound 7c], the EC50 [1, 2] was 2.6 nM, the EC50 (HIV mutant strain Y181C; [3]) was 8.7 nM and the EC50 (HIV BH-10 WT; [4]) was 0.4 nM.

CCc1cccc(P(=O)(OC)c2c(C(N)=O)[nH]c3ccc(Cl)cc23)c1 (centres unmarked) [Compound 7d] gave an EC50 [1, 2] of 1.4 nM, an EC50 (HIV mutant strain Y181C; [3]) of 6.5 nM and an EC50 (HIV BH-10 WT; [4]) of 0.6 nM.

COP(=O)(c1cccc(C(F)(F)F)c1)c1c(C(N)=O)[nH]c2ccc(Cl)cc12 (centres unmarked) [Compound 7e] showed an EC50 [1, 2] of 1.2 nM, an EC50 (HIV mutant strain Y181C; [3]) of 3.2 nM and an EC50 (HIV BH-10 WT; [4]) of 0.9 nM.

Compound COP(=O)(c1cccc(C#N)c1)c1c(C(N)=O)[nH]c2ccc(Cl)cc12 (centres unmarked) [Compound 7f] has an EC50 [1, 2] of 15.3 nM, an EC50 (HIV mutant strain Y181C; [3]) of 10.5 nM and an EC50 (HIV BH-10 WT; [4]) of 0.9 nM.

In the case of COP(=O)(c1cccc(C(C)C)c1)c1c(C(N)=O)[nH]c2ccc(Cl)cc12 (centres unmarked) [Compound 7g], the EC50 [1, 2] is reported as 7.7 nM, the EC50 (HIV mutant strain Y181C; [3]) is reported as 8.8 nM and the EC50 (HIV BH-10 WT; [4]) is reported as 2.5 nM.

Work on COP(=O)(c1cccc(CF)c1)c1c(C(N)=O)[nH]c2ccc(Cl)cc12 (centres unmarked) [Compound 7h] yielded an EC50 [1, 2] of 2.5 nM, an EC50 (HIV mutant strain Y181C; [3]) of 6.1 nM and an EC50 (HIV BH-10 WT; [4]) of 0.9 nM.

COP(=O)(c1cccc(-c2ccccc2)c1)c1c(C(N)=O)[nH]c2ccc(Cl)cc12 (centres unmarked) [Compound 7i] showed an EC50 [1, 2] of 380 nM, an EC50 (HIV mutant strain Y181C; [3]) of 398 nM and an EC50 (HIV BH-10 WT; [4]) of 9.9 nM.

For COP(=O)(c1cc(C)cc(C)c1)c1c(C(=O)NCc2ccc(F)cc2F)[nH]c2ccc(Cl)cc12 (centres unmarked) [Compound 18aaj], the EC50 [1, 2] was 41.6 nM and the EC50 [1, 8] was 25.8 nM.

In the case of COc1cccc(P(=O)(OC)c2c(C(=O)NCc3ccncc3)[nH]c3ccc(Cl)cc23)c1 (centres unmarked) [Compound 18av], the EC50 [1, 2] is reported as 2.4 nM, the EC50 [1, 8] is reported as 1.4 nM and the EC50 (HIV BH-10 WT; [4]) is reported as 0.7 nM. The EC50 (HIV BH-10 WT; read-out: EC50 WT///B, BH-10 cells, wild type) was 0.8 nM.

For COP(=O)(c1c(C(N)=O)[nH]c2ccc(Cl)cc12)C1CCCCC1 (centres unmarked) [Compound 57a], the EC50 [1, 2] was 162 nM and the EC50 (HIV BH-10 WT; [4]) was 1.7 nM.
